Test results from publication PMC12884754, “A GLUTAMATE CYSTEINE LIGASE Gene StGSH1 Regulated by StERF10 Enhanced Glutathione Accumulation and Adaptation to Low Phosphorus Stress in Potato” (Advanced Science, 2025).

Tests used:
StGSH1 (monomer) = molecular target: T1, StGSH1 (monomer) (Solanum tuberosum, UniProt M1AWB9); test: coupled pyruvate kinase/lactate dehydrogenase assay of ADP formation, A340; assay type: biochemical; details: standard reaction: pH 8.0, 100 mM Tris, 150 mM KCl, 20 mM MgCl2, 10 mM L-cysteine, 20 mM L-glutamate, read-out: ATP
T1 construct: gene LOC102600891; pET32a, E. coli BL21(DE3); His tag removed by TEV; monomer separated on Mono Q
T1 sequence (M1AWB9 74-523): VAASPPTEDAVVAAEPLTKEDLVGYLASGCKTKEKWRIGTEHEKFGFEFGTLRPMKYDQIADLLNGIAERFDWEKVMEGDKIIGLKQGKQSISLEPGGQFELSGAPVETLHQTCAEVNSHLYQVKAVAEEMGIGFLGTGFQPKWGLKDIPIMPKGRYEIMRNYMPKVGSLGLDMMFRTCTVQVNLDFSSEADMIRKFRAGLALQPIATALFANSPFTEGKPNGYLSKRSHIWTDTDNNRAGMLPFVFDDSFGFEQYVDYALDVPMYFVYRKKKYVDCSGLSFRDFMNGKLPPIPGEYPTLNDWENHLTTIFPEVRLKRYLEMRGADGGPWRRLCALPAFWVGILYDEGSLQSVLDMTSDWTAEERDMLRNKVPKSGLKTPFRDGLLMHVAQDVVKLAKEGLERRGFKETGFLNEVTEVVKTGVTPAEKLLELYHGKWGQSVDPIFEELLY
Text: coupled pyruvate kinase/lactate dehydrogenase assay of ADP formation, A340 on StGSH1 (monomer)

StGSH1 (dimer) = molecular target: T2, StGSH1 (dimer) (Solanum tuberosum, UniProt M1AWB9); test: as above; assay type: biochemical; details: standard reaction: pH 8.0, 100 mM Tris, 150 mM KCl, 20 mM MgCl2, 10 mM L-cysteine, 20 mM L-glutamate; homo-dimer; read-out: ATP
T2 construct: gene LOC102600891; pET32a, E. coli BL21(DE3); His tag removed by TEV; homodimer separated on Mono Q
T2 sequence (M1AWB9 74-523): T1 sequence (M1AWB9 74-523)
Text: coupled pyruvate kinase/lactate dehydrogenase assay of ADP formation, A340 on StGSH1 (dimer)

A Km (StGSH1 (monomer)) of 2410 ± 360 µM and a Km (StGSH1 (dimer)) of 1000 ± 300 µM were found for `Nc1ncnc2c1ncn2[C@@H]1O[C@H](COP(=O)(O)OP(=O)(O)OP(=O)(O)O)[C@@H](O)[C@H]1O` [ATP] in this work.
